Patent US11110138B2 (priority 2012, dated 2021)

Experiment: in vitro
Conditions: African green monkey

CS(=O)(=O)OCCCCOS(C)(=O)=O [busulfan]
viability: ~82%
